According to PMC8728392, “Synthesis, Anticancer Assessment, and Molecular Docking of Novel Chalcone-Thienopyrimidine Derivatives in HepG2 and MCF-7 Cell Lines” (Oxidative Medicine and Cellular Longevity, 2021):

What was measured:
[1] = test system: human breast cancer cell line (MCF-7); assay: MTT assay, cytotoxicity; assay type: cell-based; conditions: MCF-7; for survival percentage (mean ± SEM): 24 hours
Protocol: (§1) Cancer cell lines were manipulated according to the method described by Sigounas et al.. In this method, the cell lines were grown as adherent monolayers in T75 flasks with Dulbecco's modified Eagle's medium (DMEM) supplemented with 10% Fetal Bovine Serum (FBS), 2 mM L-glutamine, and 1% streptomycin/penicillin. The cells were left to grow in a CO2 incubator at 37°C, 5% CO2, and 95% humidity until their confluence.
(§2) The 3-[4,5-dimethylthiazol-2-yl]-2,5-diphenyltetrazolium bromide (MTT) colorimetric assay was used to examine the sensitivity of cells to tested compounds (as anticancer drugs), as previously described. This assay depends on the production of a purple formazan derivative from the yellow tetrazolium bromide (MTT) by mitochondrial succinate dehydrogenase in viable cells. The percentage of cell survival was calculated as follows: (1) Percentage of survival=O.D.treated cells/O.D.control cells×100.
(§3) For preliminary screening of the cytotoxicity of synthesized compounds 3a-g, cells exposed to DMSO were used as a control. Plotting the relationship between the survival score and the compound concentration and calculating the IC50 (the concentration required to inhibit cell viability by 50%) were performed for each test compound according to Li et al. in comparison with the reference standard anticancer agent, 5-FU.
(§4) The 3-[4,5-dimethylthiazol-2-yl]-2,5-diphenyltetrazolium bromide (MTT) colorimetric assay was used to examine the sensitivity of cells to tested compounds (as anticancer drugs), as previously described by Hussein et al. (2017). This assay depend on the production of a purple formazan derivative from the yellow tetrazolium bromide (MTT) by mitochondrial succinate dehydrogenase in viable cells. Briefly, after harvesting the cells with 0.25% trypsin, the cell lines were suspended in DMEM. Cells were seeded in 96-well microtiter plates at a concentration of 5×10^4 cell/well in a fresh medium and left to attach to the plates for 24 h before treatment with the tested compounds 3a-g. Test compounds were dissolved in dimethyl sulfoxide (DMSO). After 24 hours, cells were incubated with the appropriate concentration ranges of compounds, the wells were diluted to […] with fresh medium and incubation was continued for 24 hours. Three wells were used for each concentration. After 24 hours of treatment, 20 μl of MTT solution (5mg/ml) was added and subsequently the plates were further incubated for 4 hours to allow the viable cells to biotransform the yellow-colored MTT into purple formazan crystals. The optical density (O.D.) of each well was measured spectrophotometrically at […] with an enzyme-linked immunosorbent assay (ELISA) microplate reader (BioTek, EL-800, USA). The percentage of cell survival was calculated as follows: […]

[2] = test system: human liver cancer cell line (HepG2); assay: MTT assay, cytotoxicity; assay type: cell-based; conditions: HepG2; for survival percentage (mean ± SEM): 24 hours
Protocol: as §1, §2, §3, §4

[3] = test system: HepG2 cell line; assay: Cell cycle analysis (PI, flow cytometry); assay type: cell-based, human
Protocol: Cell cycle analysis was performed to decide if the newly synthesized thienopyrimidine derivatives arrested the cell cycle and at what phase of the cell cycle, the HepG2 and MCF-7 cell lines were arrested. The experiments were performed as previously described by Tolba et al.. HepG2 and MCF-7 cell lines were seeded and incubated with the tested compounds in 6-well plates. After incubation overnight, the cells were washed twice with ice-cold phosphate-buffered saline (PBS), detached by EDTA-trypsinization from the plates, harvested by centrifugation, fixed in ice-cold 70% (v/v) ethanol, and washed with phosphate-buffered saline (PBS, pH 7.2 ± 0.2). The cells were resuspended with 0.1 mg/ml RNase, stained with […] propidium iodide (PI), and analyzed by flow cytometry using a FACSCalibur flow cytometer (BD Biosciences, San Jose, CA). CellQuest software (Becton Dickinson) was used to determine the cell cycle distributions after incubation with 5-FU or tested compounds. Exposure of HepG2 and MCF-7 cell lines to these compounds could interfere with the normal cell cycle distribution.

In the case of CCOC(=O)N1CCc2c(sc3nc(SCC(=O)Nc4ccc(C(=O)/C=C\c5cc(OC)c(OC)c(OC)c5)cc4)[nH]c(=O)c23)C1 [Compound 3e, Ethyl (Z)-4-Oxo-2-((2-oxo-2-((4-(3-(3,4,5-trimethoxyphenyl)acryloyl)phenyl)amino)ethyl)-thio)-3,5,6,8-tetrahydropyrido[4′,3′:4,5]thieno[2,3-d]pyrimidine-7(4H)-carboxylate], the “survival percentage (mean ± SEM)” value ([1]; 4.8828125 μg/ml) is reported as 147.1 ± 0.051%, the “survival percentage (mean ± SEM)” value ([1]; 9.765625 μg/ml) is reported as 131.6 ± 0.132% and the “survival percentage (mean ± SEM)” value ([1]; 19.53125 μg/ml) is reported as 123.4 ± 0.070%. The “survival percentage (mean ± SEM)” value ([1]; 39.0625 μg/ml) was 129.1 ± 0.033%, the “survival percentage (mean ± SEM)” value ([1]; 78.125 μg/ml) was 109.2 ± 0.084% and the “survival percentage (mean ± SEM)” value ([1]; 156.25 μg/ml) was 104.2 ± 0.026%. For the same molecule, the “survival percentage (mean ± SEM)” value ([1]; 312.5 μg/ml) was 61.5 ± 0.112%, the “survival percentage (mean ± SEM)” value ([1]; 625 μg/ml) was 38.0 ± 0.030% and the “survival percentage (mean ± SEM)” value ([1]; 1250 μg/ml) was 27.8 ± 0.021%. The “survival percentage (mean ± SEM)” value ([1]; 2500 μg/ml) was 17.9 ± 0.002%, the “survival percentage (mean ± SEM)” value ([1]; 5000 μg/ml) was 16.0 ± 0.000% and the “survival percentage (mean ± SEM)” value ([1]; 10000 μg/ml) was 15.9 ± 0.002%. For the same molecule, the “survival percentage (mean ± SEM)” value ([2]; 4.8828125 μg/ml) was 127.5 ± 0.033%, the “survival percentage (mean ± SEM)” value ([2]; 9.765625 μg/ml) was 114.3 ± 0.141% and the “survival percentage (mean ± SEM)” value ([2]; 19.53125 μg/ml) was 91.9 ± 0.060%. The “survival percentage (mean ± SEM)” value ([2]; 39.0625 μg/ml) was 45.1 ± 0.072%, the “survival percentage (mean ± SEM)” value ([2]; 78.125 μg/ml) was 21.4 ± 0.073% and the “survival percentage (mean ± SEM)” value ([2]; 156.25 μg/ml) was 21.1± 0.012%. For the same molecule, the “survival percentage (mean ± SEM)” value ([2]; 312.5 μg/ml) was 19.8 ± 0.005%, the “survival percentage (mean ± SEM)” value ([2]; 625 μg/ml) was 18.9 ± 0.001% and the “survival percentage (mean ± SEM)” value ([2]; 1250 μg/ml) was 18.4 ± 0.003%. The “survival percentage (mean ± SEM)” value ([2]; 2500 μg/ml) was 17.4 ± 0.002%, the “survival percentage (mean ± SEM)” value ([2]; 5000 μg/ml) was 16.8 ± 0.003% and the “survival percentage (mean ± SEM)” value ([2]; 10000 μg/ml) was 14.1 ± 0.002%. For the same molecule, the “cell population in G2/M compared with control cells” value [3] was “substantial increase”, the “cell population in pre-G1 phases compared with control cells” value [3] was “significant increase” and the melting point was 167 to 168 °C.

In the case of CCOCc1nc2sc3c(c2c(=O)n1CC(=O)Nc1ccc(C(=O)/C=C\c2cccc([N+](=O)[O-])c2)cc1)CCN(C(=O)OCC)C3 [Compound 3f, Ethyl (Z)-2-(Ethoxymethyl)-3-(2-((4-(3-(3-nitrophenyl)acryloyl)phenyl)amino)-2-oxoethyl)-4-oxo-3,5,6,8-tetrahydropyrido[4′,3′:4,5]thieno[2,3-d]pyrimidine-7(4H)-carboxylate], the “cytotoxic activity (in words)” value [1] is reported as “lowest cytotoxic activity”, the “survival percentage (mean ± SEM)” value ([1]; 4.8828125 μg/ml) is reported as 149.7 ± 0.082% and the “survival percentage (mean ± SEM)” value ([1]; 9.765625 μg/ml) is reported as 132.2 ± 0.214%. The “survival percentage (mean ± SEM)” value ([1]; 19.53125 μg/ml) was 127.7 ± 0.180%, the “survival percentage (mean ± SEM)” value ([1]; 39.0625 μg/ml) was 122.6 ± 0.121% and the “survival percentage (mean ± SEM)” value ([1]; 78.125 μg/ml) was 120.2 ± 0.150%. For the same molecule, the “survival percentage (mean ± SEM)” value ([1]; 156.25 μg/ml) was 119.7 ± 0.182%, the “survival percentage (mean ± SEM)” value ([1]; 312.5 μg/ml) was 92.0 ± 0.141% and the “survival percentage (mean ± SEM)” value ([1]; 625 μg/ml) was 67.1 ± 0.086%. For the same molecule, the “survival percentage (mean ± SEM)” value ([1]; 1250 μg/ml) was 47.5 ± 0.181%, the “survival percentage (mean ± SEM)” value ([1]; 2500 μg/ml) was 6.2 ± 0.004% and the “survival percentage (mean ± SEM)” value ([1]; 5000 μg/ml) was 5.1 ± 0.003%. For the same molecule, the “survival percentage (mean ± SEM)” value ([1]; 10000 μg/ml) was 4.6 ± 0.002%, the “cytotoxic activity (in words)” value [2] was “lowest cytotoxic activity” and the “survival percentage (mean ± SEM)” value ([2]; 4.8828125 μg/ml) was 149.7 ± 0.200%. For the same molecule, the “survival percentage (mean ± SEM)” value ([2]; 9.765625 μg/ml) was 149.1 ± 0.106%, the “survival percentage (mean ± SEM)” value ([2]; 19.53125 μg/ml) was 144.7 ± 0.140% and the “survival percentage (mean ± SEM)” value ([2]; 39.0625 μg/ml) was 119.1 ± 0.122%. For the same molecule, the “survival percentage (mean ± SEM)” value ([2]; 78.125 μg/ml) was 115.9 ± 0.157%, the “survival percentage (mean ± SEM)” value ([2]; 156.25 μg/ml) was 112.0 ± 0.460% and the “survival percentage (mean ± SEM)” value ([2]; 312.5 μg/ml) was 77.8 ± 0.071%. The “survival percentage (mean ± SEM)” value ([2]; 625 μg/ml) was 15.3 ± 0.005%, the “survival percentage (mean ± SEM)” value ([2]; 1250 μg/ml) was 12.6 ± 0.019% and the “survival percentage (mean ± SEM)” value ([2]; 2500 μg/ml) was 11.7 ± 0.009%. The “survival percentage (mean ± SEM)” value ([2]; 5000 μg/ml) was 11.6 ± 0.002%, the “survival percentage (mean ± SEM)” value ([2]; 10000 μg/ml) was 10.7 ± 0.004% and the melting point was 178 to 179 °C.

With CCOC(=O)Cn1c(SCC(=O)Nc2ccc(C(=O)/C=C\c3cccc([N+](=O)[O-])c3)cc2)nc2sc3c(c2c1=O)CCN(C(=O)OCC)C3 [Compound 3c, Ethyl (Z)-3-(2-Ethoxy-2-oxoethyl)-2-((2-((4-(3-(3-nitrophenyl)acryloyl)phenyl)amino)-2-oxoethyl)thio)-4-oxo-3,5,6,8-tetrahydropyrido[4′,3′:4,5]thieno[2,3-d]pyrimidine-7(4H)-carboxylate] the “survival percentage (mean ± SEM)” value ([1]; 4.8828125 μg/ml) was 149.3 ± 0.082%, the “survival percentage (mean ± SEM)” value ([1]; 9.765625 μg/ml) was 135.4 ± 0.066% and the “survival percentage (mean ± SEM)” value ([1]; 19.53125 μg/ml) was 140.3 ± 0.197%. For the same molecule, the “survival percentage (mean ± SEM)” value ([1]; 39.0625 μg/ml) was 132.0 ± 0.136%, the “survival percentage (mean ± SEM)” value ([1]; 78.125 μg/ml) was 121.5 ± 0.183% and the “survival percentage (mean ± SEM)” value ([1]; 156.25 μg/ml) was 110.9 ± 0.063%. For the same molecule, the “survival percentage (mean ± SEM)” value ([1]; 312.5 μg/ml) was 71.1 ± 0.156%, the “survival percentage (mean ± SEM)” value ([1]; 625 μg/ml) was 11.3 ± 0.026% and the “survival percentage (mean ± SEM)” value ([1]; 1250 μg/ml) was 7.4 ± 0.003%. The “survival percentage (mean ± SEM)” value ([1]; 2500 μg/ml) was 6.4 ± 0.003%, the “survival percentage (mean ± SEM)” value ([1]; 5000 μg/ml) was 6.4 ± 0.007% and the “survival percentage (mean ± SEM)” value ([1]; 10000 μg/ml) was 5.9 ± 0.002%. For the same molecule, the “survival percentage (mean ± SEM)” value ([2]; 4.8828125 μg/ml) was 91.5 ± 0.013%, the “survival percentage (mean ± SEM)” value ([2]; 9.765625 μg/ml) was 81.6 ± 0.027% and the “survival percentage (mean ± SEM)” value ([2]; 19.53125 μg/ml) was 69.8 ± 0.027%. The “survival percentage (mean ± SEM)” value ([2]; 39.0625 μg/ml) was 63.0 ± 0.030%, the “survival percentage (mean ± SEM)” value ([2]; 78.125 μg/ml) was 62.4 ± 0.051% and the “survival percentage (mean ± SEM)” value ([2]; 156.25 μg/ml) was 22.1 ± 0.011%. For the same molecule, the “survival percentage (mean ± SEM)” value ([2]; 312.5 μg/ml) was 21.1 ± 0.004%, the “survival percentage (mean ± SEM)” value ([2]; 625 μg/ml) was 20.6 ± 0.003% and the “survival percentage (mean ± SEM)” value ([2]; 1250 μg/ml) was 20.1 ± 0.004%. For the same molecule, the “survival percentage (mean ± SEM)” value ([2]; 2500 μg/ml) was 19.0 ± 0.002%, the “survival percentage (mean ± SEM)” value ([2]; 5000 μg/ml) was 18.8 ± 0.001% and the “survival percentage (mean ± SEM)” value ([2]; 10000 μg/ml) was 18.0 ± 0.001%. For the same molecule, the “G1 phase cell population” value [3] was “significant increase”, the “%DIP G1” value ([3]; flow cytometry panel) was 55.32% and the melting point was 189 to 190 °C.
